For series [1], the system named is aSMase. Put plainly: residual aSMase activity after treatment of PC12 cells with 10 micromolar agent. The settings on record: from Table 1 residual aSMase activity. It is filed as cell-based. As for the experimental part: The data were obtained in a cell-based study by adding 10 micromolar aliquots of the above agents to PC12 cells for the indicated amounts of time (usually 0.5, 6, or 24 hours). Cells were lysed and aSMase activity measured using [choline methyl-14C] sphingomyeline. The amount of aSMase activity following the treatment of the agent was compared to vehicle without any FIASM. […] The data for the listed compounds (n=276) is based on the publication by Kornhuber et al. 2008, including compounds number n=101 combined with an additional set of compounds (n=175) Kornhuber J, Muehlbacher M, Trapp S, Pechmann S, Friedl A, Reichel M, Mühle C, Terfloth L, Groemer T W, Spitzer G M, Liedl K R, Gulbins E, Tripal P. Identification of novel functional inhibitors of acid sphingomyelinase. PLOS One. 2011; 6 (8): e23852. doi: 10.1371/journal.pone.0023852. Epub 2011 Aug. 31. PMID: 21909365; PMCID: PMC3166082. The numbering of compounds is identical to the previous publication for the first 101 compounds. CID=PubChem Compound ID. Set: 1=experimental values from Kornhuber et al. 2008, 2=corrected experimental values of the previously published compounds; 3=newly investigated compounds, Acid/Base: 1=monobase, 2=monoacid, 3=bibase, 4=zwitter. Mean residual activity of ASM is given as % of the corresponding control values.

For series [2], the system named is aSMase. The settings on record: cited from earlier work.
The conditions of series [3]: hairless mice, effect of propylene glycol; cited from earlier work.
The test system of series [4] is PDT-induced MVP release. Put plainly: PDT-induced MVP release in skin and plasma of mice. It is filed as in vivo. The protocol:
Next, the role of PAF and aSMase in PDT-induced MVP release was assessed. […] Next, the ability of topical PDT to generate MVP in vivo in mice, and the role of aSMase in this process, was determined. […] Two approaches were used to determine if PDT-induced MVP involved aSMase.
The role of aSMase in PDT-mediated MVP release was evaluated in a murine system. For the data shown in FIG. 18, wild-type mice were treated with either sham, 100 μl of 5 mM IMIP, or 90% polyethylene glycol: 10% DMSO vehicle, or 1 μM TPA (as a positive control for MVP release), or PDT using 20 J/cm^2 blue light. Immediately following PDT, the treated areas were given vehicle or imipramine. At 4 hours post-treatment, the mice were euthanized and MVP were measured from duplicate 6-mm punch biopsies and plasma. The data are mean±SD fold increase in MVP normalized to tissue weight/plasma volume. * Denotes statistically significant (P<0.05) changes from sham; #statistically significant (P<0.05) changes from comparator denoted by line by two-way ANOVA; NS not statistically significant.
To confirm the role of aSMase in PDT-induced MVP generation, PDT effects were evaluated in the absence of aSMase was evaluated in a murine system. For the data shown in FIG. 19, wild-type or aSMase-deficient (Smpd1−/−) mice underwent sham or PDT using 20 J/cm^2 blue light. At 4 hours post-treatment, the mice were euthanized and MVP were measured from duplicate 6-mm punch biopsies and plasma. The data are mean±SD fold increase in MVP normalized to tissue weight/plasma volume. * Denotes statistically significant (P<0.05) changes from sham; NS not statistically significant.

The test system of series [5] is PDT-induced immunosuppression. In words: contact hypersensitivity (CHS) to DNFB after PDT, ear thickness. Type of series: in vivo, mice. The settings on record: aSMase-deficient (Smpd1-/-) mice, CPAF intraperitoneal. The text has this: Five days later the mice underwent sensitization with the neoantigen DNFB. To test for local immunosuppression, DNFB was applied to the PDT-treated area. To test for systemic immunosuppression, the DNFB was applied to back skin at least 2 cm away from the PDT-treated area. Nine days later the mice underwent elicitation reactions to DNFB by application to one ear, with vehicle applied to the other ear. One day later the ear thickness was obtained as a measure of CHS reaction and compared to pre-treatment and vehicle-treated values. Some mice were treated with intraperitoneal CPAF as a positive control for systemic immunosuppression.
For the data shown in FIG. 20, wild-type mice either were injected intraperitoneally with 250 ng CPAF as a positive control for immunosuppression, underwent PDT using 10 J/cm^2 blue light, or received no treatment (SHAM). […] Five days later the mice underwent sensitization with DNFB in PDT-treated (local immunosuppression) or non-PDT-treated skin (systemic immunosuppression). Nine days later the mice underwent elicitation reactions to ears with ear thickness measured at 24 hours. For the data shown in FIG. 21, wild type and aSMase-deficient (Smpd1−/−) mice underwent treatment with CPAF or PDT followed by DNFB sensitization/elicitation reactions as in FIG. 20. The data are mean±SD values. * Denotes statistically significant (P<0.05) changes from sham treatment values using two-way ANOVA.

The subject of series [6] is human fibroblasts which lack PAFRs. Put plainly: MVP levels in human fibroblasts which lack PAFRs. It is filed as cell-based. The settings on record: human fibroblasts lacking PAFRs, data not shown.
The subject of series [7] is HaCaT keratinocytes. Put plainly: PDT (5-ALA + blue light) MVP release in HaCaT keratinocytes. It is filed as cell-based, human. The settings on record: HaCaT. As for the experimental part: PDT results in acute cellular destruction and inflammation and photosensitivity, as well as delayed immunosuppression. […] Thus, it was of further interest whether experimental PDT of HaCaT keratinocytes generated MVP in vitro. To that end, HaCaT cells were pretreated with 5-ALA alone, or blue light alone, or a 4 hour incubation of 5-ALA in the dark followed by various fluences of blue light, and MVP were measured in the supernatants at 4 hours post blue light. 100 nM CPAF and TPA were used as positive controls for MVP release.
For the data shown in FIG. 14, HaCaT keratinocytes were treated with sham (no treatment), 0.1% ethanol vehicle control (VEH), 100 nM TPA, 100 nM CPAF, 1 mM 5-ALA for 4 hours, or 5-ALA followed by various fluences (2.5-20 J/cm^2) of blue light or blue light alone. Levels of MVPs released into supernatants were measured at 4 hours. […] For the data shown in FIG. 15, human skin explants were treated with sham, 100 μL vehicle (90% ethanol+10% DMSO) (VEH), 1 μM TPA, 1 µM CPAF, 1 mM 5-ALA for 4 hours, blue light or 5-ALA+blue light at 20 J/cm^2. After four hours, duplicate 6-mm punch biopsies were obtained, weighed, and MVPs were measured. The data are the mean±SE from 3-4 separate experiments conducted in duplicate. * Denotes statistically significant (P <0.05) changes from sham values.
Supernatants were collected at 4 hours and MVP measured. The data are the mean±SE MVP fold change from sham-treated values. For the data shown in FIG. 17, human skin explants were treated as in FIG. 15, with the exception that in some experiments 100 μL of 5 mM IMIP was added post-PDT. MVP were measured in duplicate 6-mm punch biopsies obtained 4 hours post-treatment.

Take `CN(C)CCC=C1c2ccccc2CCc2ccccc21` [Amitriptyline]: in series [1], the “potency relative to imipramine” value was “approximately three times more potent than imipramine”. Also, the “Residual ASM Activity” value in series [2] (10 micromolar, PC12 cells, incubation time 0.5 h, % of corresponding control values) was 11.7%. In addition, the “residual aSMase activity after treatment” value in series [2] (from Kornhuber et al. 2008) was 11.7%. In addition, the “absorption with propylene glycol” value in series [3] is “enhances absorption”.

`CCCCCCCCCCCCC/C=C/[C@@H](O)[C@H](CO)NC(C)=O` [C-2 ceramide]: in series [4] (topical application, aSMase KO mice, data not shown), the “MVP generation in aSMase KO mice” value is “generates MVP in the aSMase KO mice”.

For `CCCCCCCCCCCCCCCCOC[C@H](COP(=O)([O-])OCC[N+](C)(C)C)OC(=O)NC` [CPAF, carbamoyl-PAF], the “immunosuppression in aSMase KO mice (CHS to DNFB)” value in series [5] is listed as “resulted in similar levels of immunosuppression in comparison to wild-type mice”. Moreover, the “MVP levels in fibroblasts” value in series [6] is “robust increases in MVP levels in response to PDT but not the PAFR agonist CPAF”.

In the case of `NCC(=O)CCC(=O)O` [Compound 5-ALA, 5-aminolevulinic acid], in series [7] (1 mM 5-ALA 4 hours then 2.5-20 J/cm^2 blue light, 4 h), the “MVP generation, 5-ALA along with blue light (PDT)” value is recorded as “resulted in high levels of MVP generation in a dosage-dependent manner”. In series [7] (1 mM 5-ALA 4 hours without blue light), the “MVP formation, 5-ALA alone” value is recorded as “did not generate appreciate MVP formation”.

With `CCCCCCCCCCCCCC(=O)O[C@@H]1[C@@H](C)[C@@]2(O)[C@@H](C=C(CO)C[C@]3(O)C(=O)C(C)=C[C@@H]23)[C@@H]2C(C)(C)[C@]12OC(C)=O` [TPA, 12-O-tetradecanoylphorbol-13-acetate], in series [4] (wild-type mice, 1 μM TPA, positive control, 4 h), the “MVP levels after topical TPA” value was “resulted in increased levels of MVP”.

Source of the values: patent publication US20240245703A1, “TOPICAL APPLICATION OF AGENTS TO REDUCE SUN SENSITIVITY AND IMPROVE TOPICAL PHOTODYNAMIC THERAPY” (Wright State University, priority 2021, published 2024).
